Source: PubChem BioAssay AID1963420 (Molecular Pharmacology Branch, DTP, NCI, 2024)
pIC50: −log10 of the molar value. “And” between values parts separate entries of the source, which are not always exact repeats. Equal values may be shown once.

Tested on: 494315-158-R-J1-PDC complex spheroid growth, percent test/control
Experiment: Anticancer human tumor 494315-158-R-J1-PDC patient-derived soft tissue sarcoma cell line growth inhibition [Asc]
Conditions: for viability, T/C: stronger effect = lower value
In short: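 Complex spheroids combining tumor cells with HUVEC endothelial cells and human MSCs, at 37 degrees C, 5% CO2; agents tested alone or combined, half-log dilutions from at or near clinical Cmax, or 10 microM if Cmax unknown.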
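Also: compound exposure lasted seven days after spheroids formed for three days.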

`Cn1ncnc1[C@H]1c2n[nH]c(=O)c3cc(F)cc(c23)N[C@@H]1c1ccc(F)cc1` + Cc1c(S(C)(=O)=O)c(-c2cc(F)cc(N3CCN(c4ccc(NS(=O)(=O)c5ccc(NC(CCN6CCC(C(=O)OCCCP(=O)(O)O)CC6)CSc6ccccc6)c(S(=O)(=O)C(F)(F)F)c5)cc4)CC3)c2)c(-c2ccc(Cl)cc2)n1C(C)C showed a pIC50 (curve of first compound, second compound 0.1 µM) of 7.57, a pIC50 (curve of first compound, second compound 0.316 µM) of 7.74 and a pIC50 (curve of first compound, second compound 1 µM) of 8.36. For the same compound, the pIC50 (curve of first compound, second compound 3.16 µM) was 8.89, the pIC50 (curve of first compound, second compound 10 µM) was 8.34 and the viability, T/C (second compound 0.1 µM, first compound 0.000316 µM) was 83.2%. The viability, T/C (second compound 0.1 µM, first compound 0.001 µM) was 76%, the viability, T/C (second compound 0.1 µM, first compound 0.00316 µM) was 62.2% and the viability, T/C (second compound 0.1 µM, first compound 0.01 µM) was 56.5%. The viability, T/C (second compound 0.1 µM, first compound 0.0316 µM) was 48.7%, the viability, T/C (second compound 0.1 µM, first compound 0.1 µM) was 46.1% and the viability, T/C (second compound 0.316 µM, first compound 0.000316 µM) was 74.6%. It also gave a viability, T/C (second compound 0.316 µM, first compound 0.001 µM) of 63.1%, a viability, T/C (second compound 0.316 µM, first compound 0.00316 µM) of 63.9% and a viability, T/C (second compound 0.316 µM, first compound 0.01 µM) of 44.6%. It also gave a viability, T/C (second compound 0.316 µM, first compound 0.0316 µM) of 50.9%, a viability, T/C (second compound 0.316 µM, first compound 0.1 µM) of 48.9% and a viability, T/C (second compound 1 µM, first compound 0.000316 µM) of 56.4%. It also gave a viability, T/C (second compound 1 µM, first compound 0.001 µM) of 59%, a viability, T/C (second compound 1 µM, first compound 0.00316 µM) of 52% and a viability, T/C (second compound 1 µM, first compound 0.01 µM) of 43%. It also gave a viability, T/C (second compound 1 µM, first compound 0.0316 µM) of 38.9%, a viability, T/C (second compound 1 µM, first compound 0.1 µM) of 35% and a viability, T/C (second compound 3.16 µM, first compound 0.000316 µM) of 56.1%. For the same compound, the viability, T/C (second compound 3.16 µM, first compound 0.001 µM) was 53.5%, the viability, T/C (second compound 3.16 µM, first compound 0.00316 µM) was 40.3% and the viability, T/C (second compound 3.16 µM, first compound 0.01 µM) was 31.6%. For the same compound, the viability, T/C (second compound 3.16 µM, first compound 0.0316 µM) was 32.9%, the viability, T/C (second compound 3.16 µM, first compound 0.1 µM) was 25.4% and the viability, T/C (second compound 10 µM, first compound 0.000316 µM) was 66.1%. For the same compound, the viability, T/C (second compound 10 µM, first compound 0.001 µM) was 71.2%, the viability, T/C (second compound 10 µM, first compound 0.00316 µM) was 53.3% and the viability, T/C (second compound 10 µM, first compound 0.01 µM) was 45.2%. The viability, T/C (second compound 10 µM, first compound 0.0316 µM) was 38.4% and the viability, T/C (second compound 10 µM, first compound 0.1 µM) was 45.7%.
`NC1CCC(NC2CC2c2ccccc2)CC1` (configuration not stated) was tested, and the viability, T/C (compound 0.000316 µM) was 89% and 106% and 94%, the viability, T/C (compound 0.001 µM) was 76.7% and 90.3% and 92.3% and the viability, T/C (compound 0.00316 µM) was 75.3% and 86% and 84.9%. The viability, T/C (compound 0.01 µM) was 89% and 91.7% and 90.7%, the viability, T/C (compound 0.0316 µM) was 93.3% and 81.8% and 96.3% and the viability, T/C (compound 0.1 µM) was 88.3% and 94.6% and 95.1%. The pIC50 (curve of compound) was less than 7.00.
